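Briefly, cells in 96-well plates were exposed to five compound concentrations for 48 h, and endpoints were estimated by linear interpolation. GI50 marks 50% less growth.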 Activity calls are given as the source filed them. Rule as the data show it: active = GI50 up to about 1.1 µM and inactive = higher.
Tests used:
Test in all cases: inhibition of tumour cell growth, NCI panel, 48 h
U-251 = tested on: U-251
Malme-3M = tested on: Malme-3M
SW-620 = tested on: SW-620
OVCAR-8 = tested on: OVCAR-8
HT-29 = tested on: HT-29
NCI-H460 = tested on: NCI-H460
HOP-92 = tested on: HOP-92
HCT-116 = tested on: HCT-116
KM12 = tested on: KM12
SF-295 = tested on: SF-295
IGROV-1 = tested on: IGROV-1
CCRF-CEM = tested on: CCRF-CEM
A498 = tested on: A498
M14 = tested on: M14
HCT-15 = tested on: HCT-15
NCI-H226 = tested on: NCI-H226

S=c1sc2sc(=S)sc2s1
GI50 (U-251): 21 µM (inactive) | GI50 (Malme-3M): > 100 µM (inactive) | GI50 (SW-620): > 100 µM (inactive) | GI50 (OVCAR-8): 50.1 µM (inactive) | GI50 (HT-29): 29.6 µM (inactive) | GI50 (NCI-H460): 22.4 µM (inactive) | GI50 (HOP-92): 57.9 µM (inactive) | GI50 (HCT-116): 30.1 µM (inactive) | GI50 (KM12): > 100 µM (inactive) | GI50 (SF-295): 20.6 µM (inactive) | GI50 (IGROV-1): > 100 µM (inactive) | GI50 (CCRF-CEM): 6.08 µM (inactive) | GI50 (A498): 23.5 µM (inactive) | GI50 (M14): 21.1 µM (inactive) | GI50 (HCT-15): 26.1 µM

NCC1(N2CCOCC2)C2CCCC21CNc1ccccc1 (centres undefined)
GI50 (U-251): > 100 µM (inactive) | GI50 (Malme-3M): > 100 µM (inactive) | GI50 (SW-620): > 100 µM (inactive) | GI50 (OVCAR-8): > 100 µM (inactive) | GI50 (HT-29): > 100 µM (inactive) | GI50 (NCI-H460): > 100 µM (inactive) | GI50 (HOP-92): 41.9 µM (inactive) | GI50 (HCT-116): > 100 µM (inactive) | GI50 (KM12): > 100 µM (inactive) | GI50 (SF-295): > 100 µM (inactive) | GI50 (IGROV-1): > 100 µM (inactive) | GI50 (CCRF-CEM): > 100 µM (inactive) | GI50 (M14): > 100 µM (inactive)

Cc1cc2c(=O)c(C)n[nH]c2c(C#N)c1C
GI50 (U-251): > 100 µM (inactive) | GI50 (Malme-3M): > 100 µM (inactive) | GI50 (SW-620): > 100 µM (inactive) | GI50 (OVCAR-8): > 100 µM (inactive) | GI50 (HT-29): > 100 µM (inactive) | GI50 (NCI-H226): > 100 µM (inactive) | GI50 (NCI-H460): > 100 µM (inactive) | GI50 (HOP-92): 29.4 µM (inactive) | GI50 (HCT-116): > 100 µM (inactive) | GI50 (SF-295): > 100 µM (inactive) | GI50 (IGROV-1): > 100 µM (inactive) | GI50 (CCRF-CEM): > 100 µM (inactive) | GI50 (HCT-15): > 100 µM

CSC1=Nc2ccccc2N=C(c2ccc(Cl)cc2)C1
GI50 (U-251): 33.4 µM (inactive) | GI50 (Malme-3M): 35.2 µM (inactive) | GI50 (SW-620): 39.1 µM (inactive) | GI50 (OVCAR-8): 52.7 µM (inactive) | GI50 (HT-29): 23 µM (inactive) | GI50 (NCI-H226): > 100 µM (inactive) | GI50 (NCI-H460): 40.2 µM (inactive) | GI50 (HCT-116): 26.5 µM (inactive) | GI50 (KM12): 36.8 µM (inactive) | GI50 (SF-295): 43.9 µM (inactive) | GI50 (IGROV-1): 22.8 µM (inactive) | GI50 (CCRF-CEM): 27.9 µM (inactive) | GI50 (M14): 36.1 µM (inactive) | GI50 (HCT-15): 26.9 µM

C=C(C#N)C1OCC2OC(C)(C)OC21 (centres undefined)
GI50 (U-251): 32.7 µM (inactive) | GI50 (SW-620): 19 µM (inactive) | GI50 (OVCAR-8): 21.5 µM (inactive) | GI50 (HT-29): 34.9 µM (inactive) | GI50 (NCI-H460): 24.9 µM (inactive) | GI50 (HOP-92): 24 µM (inactive) | GI50 (HCT-116): 18.7 µM (inactive) | GI50 (KM12): 33.3 µM (inactive) | GI50 (SF-295): 45.9 µM (inactive) | GI50 (IGROV-1): 37.4 µM (inactive) | GI50 (CCRF-CEM): 16.5 µM (inactive) | GI50 (A498): 22.2 µM (inactive) | GI50 (M14): 15.7 µM (inactive) | GI50 (HCT-15): 16.9 µM

CC1=NN(C(=O)CC(=O)Nc2ccccc2F)C(=O)C1/N=N/c1ccccc1[N+](=O)[O-] (centres undefined)
GI50 (U-251): > 100 µM (inactive) | GI50 (Malme-3M): > 100 µM (inactive) | GI50 (SW-620): > 100 µM (inactive) | GI50 (OVCAR-8): 58.5 µM (inactive) | GI50 (HT-29): > 100 µM (inactive) | GI50 (NCI-H226): > 100 µM (inactive) | GI50 (HCT-116): > 100 µM (inactive) | GI50 (KM12): > 100 µM (inactive) | GI50 (SF-295): > 100 µM (inactive) | GI50 (IGROV-1): > 100 µM (inactive) | GI50 (CCRF-CEM): 79.6 µM (inactive) | GI50 (M14): > 100 µM (inactive) | GI50 (HCT-15): > 100 µM

C=C1CN2CCc3c([nH]c4ccccc34)C2CC1CC(=O)N(C)C (centres undefined)
GI50 (U-251): > 309 µM (inactive) | GI50 (Malme-3M): > 309 µM (inactive) | GI50 (SW-620): > 309 µM (inactive) | GI50 (OVCAR-8): > 309 µM (inactive) | GI50 (HT-29): > 309 µM (inactive) | GI50 (NCI-H226): > 309 µM (inactive) | GI50 (NCI-H460): > 309 µM (inactive) | GI50 (HOP-92): 126 µM (inactive) | GI50 (HCT-116): > 309 µM (inactive) | GI50 (KM12): > 309 µM (inactive) | GI50 (SF-295): > 309 µM (inactive) | GI50 (IGROV-1): > 309 µM (inactive) | GI50 (CCRF-CEM): > 309 µM (inactive) | GI50 (HCT-15): > 309 µM

CN(C)/C(=N/C(=O)Nc1ccccc1)SCc1ccccc1
GI50 (U-251): > 100 µM (inactive) | GI50 (Malme-3M): > 100 µM (inactive) | GI50 (SW-620): > 100 µM (inactive) | GI50 (OVCAR-8): > 100 µM (inactive) | GI50 (HT-29): > 100 µM (inactive) | GI50 (NCI-H226): > 100 µM (inactive) | GI50 (KM12): > 100 µM (inactive) | GI50 (SF-295): > 100 µM (inactive) | GI50 (IGROV-1): > 100 µM (inactive) | GI50 (CCRF-CEM): > 100 µM (inactive) | GI50 (A498): > 100 µM (inactive) | GI50 (M14): > 100 µM (inactive) | GI50 (HCT-15): > 100 µM

O=C(O)CC12C3C4C5C3C1C5C42 (centres undefined)
GI50 (U-251): > 100 µM (inactive) | GI50 (Malme-3M): > 100 µM (inactive) | GI50 (SW-620): > 100 µM (inactive) | GI50 (OVCAR-8): > 100 µM (inactive) | GI50 (HT-29): > 100 µM (inactive) | GI50 (NCI-H460): > 100 µM (inactive) | GI50 (HCT-116): > 100 µM (inactive) | GI50 (KM12): > 100 µM (inactive) | GI50 (SF-295): > 100 µM (inactive) | GI50 (IGROV-1): > 100 µM (inactive) | GI50 (CCRF-CEM): > 100 µM (inactive) | GI50 (A498): > 100 µM (inactive) | GI50 (M14): > 100 µM (inactive) | GI50 (HCT-15): > 100 µM

CC(=O)OC1COC(n2ccc3cc(Br)c([N+](=O)[O-])cc32)C(OC(C)=O)C1OC(C)=O (centres undefined)
GI50 (U-251): 19.5 µM (inactive) | GI50 (Malme-3M): 24.2 µM (inactive) | GI50 (SW-620): 39.5 µM (inactive) | GI50 (OVCAR-8): 22.4 µM (inactive) | GI50 (HT-29): 28.7 µM (inactive) | GI50 (NCI-H226): 14.5 µM (inactive) | GI50 (NCI-H460): 22 µM (inactive) | GI50 (HOP-92): 9.44 µM (inactive) | GI50 (KM12): 34.2 µM (inactive) | GI50 (SF-295): 20.9 µM (inactive) | GI50 (IGROV-1): 30.3 µM (inactive) | GI50 (CCRF-CEM): 21.1 µM (inactive) | GI50 (A498): 19.1 µM (inactive) | GI50 (M14): 35.8 µM (inactive) | GI50 (HCT-15): 30.9 µM

CC1(Cl)C(=O)NC(=O)N(C2CC(N=[N+]=[N-])C(CO)O2)C1N=[N+]=[N-] (centres undefined)
GI50 (U-251): > 100 µM (inactive) | GI50 (Malme-3M): > 100 µM (inactive) | GI50 (SW-620): > 100 µM (inactive) | GI50 (OVCAR-8): > 100 µM (inactive) | GI50 (HT-29): > 100 µM (inactive) | GI50 (NCI-H460): > 100 µM (inactive) | GI50 (HOP-92): > 100 µM (inactive) | GI50 (KM12): > 100 µM (inactive) | GI50 (SF-295): > 100 µM (inactive) | GI50 (IGROV-1): > 100 µM (inactive) | GI50 (CCRF-CEM): > 100 µM (inactive) | GI50 (A498): > 100 µM (inactive) | GI50 (M14): > 100 µM (inactive) | GI50 (HCT-15): > 100 µM

CC(=O)/C(=C\c1ccco1)C(=O)Nc1ccccc1
GI50 (U-251): > 100 µM (inactive) | GI50 (Malme-3M): > 100 µM (inactive) | GI50 (SW-620): > 100 µM (inactive) | GI50 (OVCAR-8): > 100 µM (inactive) | GI50 (HT-29): > 100 µM (inactive) | GI50 (NCI-H460): > 100 µM (inactive) | GI50 (HOP-92): > 100 µM (inactive) | GI50 (HCT-116): > 100 µM (inactive) | GI50 (KM12): > 100 µM (inactive) | GI50 (SF-295): > 100 µM (inactive) | GI50 (IGROV-1): > 100 µM (inactive) | GI50 (CCRF-CEM): > 100 µM (inactive) | GI50 (M14): > 100 µM (inactive) | GI50 (HCT-15): > 100 µM

CO[C@@H]1C=C[C@@]23c4cc5c(cc4CN(C[C@@H]2O)[C@H]3C1)OCO5 [(+)-HAEMANTHAMINE]
GI50 (U-251): 15 µM (inactive) | GI50 (Malme-3M): 14.6 µM (inactive) | GI50 (SW-620): 15.5 µM (inactive) | GI50 (OVCAR-8): 27.9 µM (inactive) | GI50 (HT-29): 10.4 µM (inactive) | GI50 (NCI-H226): 25.4 µM (inactive) | GI50 (NCI-H460): 15.7 µM (inactive) | GI50 (HOP-92): 14.3 µM (inactive) | GI50 (KM12): 13.5 µM (inactive) | GI50 (SF-295): 19.1 µM (inactive) | GI50 (IGROV-1): 23.1 µM (inactive) | GI50 (CCRF-CEM): 8.34 µM (inactive) | GI50 (M14): 5.94 µM (inactive) | GI50 (HCT-15): 17.4 µM

C[C@H]1C[C@@H]2[C@H]([C@@H](O)C[C@@]3(C)[C@H]2CC[C@]3(O)C(=O)CO)[C@@]2(C)C=CC(=O)C=C12 [METHYLPREDNISOLONE]
GI50 (Malme-3M): > 100 µM (inactive) | GI50 (SW-620): > 100 µM (inactive) | GI50 (OVCAR-8): > 100 µM (inactive) | GI50 (HT-29): > 100 µM (inactive) | GI50 (NCI-H226): > 100 µM (inactive) | GI50 (NCI-H460): > 100 µM (inactive) | GI50 (HOP-92): > 100 µM (inactive) | GI50 (HCT-116): > 100 µM (inactive) | GI50 (KM12): > 100 µM (inactive) | GI50 (IGROV-1): > 100 µM (inactive) | GI50 (CCRF-CEM): 0.0429 µM (active) | GI50 (A498): > 100 µM (inactive) | GI50 (M14): > 100 µM (inactive) | GI50 (HCT-15): > 100 µM
